The test system of series [1] is Staphylococcus aureus. Kind of series: Antibacterial activity against methicillin-, quinolone-resistant Staphylococcus aureus. It counts as functional.
The subject of series [2] is Staphylococcus aureus. As to the kind of experiment: Antibacterial activity against methicillin-sensitive Staphylococcus aureus. In kind it is functional.
For the next series, the system named is Streptococcus pneumoniae. Kind of series: Antibacterial activity against Streptococcus pneumoniae ARC548. In kind it is functional.
Series [3] in a line: Lipophilicity, log D of the compound. The note with it: octanol/water.
In the next series the target is DNA gyrase subunit B (Staphylococcus aureus, UniProt P0A0K8). As to the kind of experiment: Inhibition of Staphylococcus aureus DNA gyrase B expressed in Escherichia coli BL21(DE3) cells assessed ATP hydrolysis activity […] by malachite green reagent assay.
DNA gyrase subunit B, sequence (P0A0K8 whole entry): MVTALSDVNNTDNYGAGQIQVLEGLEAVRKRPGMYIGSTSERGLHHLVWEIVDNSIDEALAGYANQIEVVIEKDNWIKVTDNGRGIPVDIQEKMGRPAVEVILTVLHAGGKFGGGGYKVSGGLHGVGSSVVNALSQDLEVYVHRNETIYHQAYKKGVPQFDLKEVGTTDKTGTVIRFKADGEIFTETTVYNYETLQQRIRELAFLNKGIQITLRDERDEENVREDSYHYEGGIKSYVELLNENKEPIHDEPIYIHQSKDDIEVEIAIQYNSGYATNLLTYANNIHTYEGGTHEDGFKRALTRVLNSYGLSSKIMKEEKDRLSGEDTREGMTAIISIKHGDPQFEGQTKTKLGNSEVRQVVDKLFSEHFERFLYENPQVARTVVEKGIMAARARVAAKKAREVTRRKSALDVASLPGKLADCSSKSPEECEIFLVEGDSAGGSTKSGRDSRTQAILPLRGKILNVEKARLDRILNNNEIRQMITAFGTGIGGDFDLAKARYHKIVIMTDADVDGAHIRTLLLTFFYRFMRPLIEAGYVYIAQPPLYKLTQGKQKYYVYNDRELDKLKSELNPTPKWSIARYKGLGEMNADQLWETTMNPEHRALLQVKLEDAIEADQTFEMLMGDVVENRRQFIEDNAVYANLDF
Series [4] can be described thus: Inhibition of Streptococcus pneumoniae DNA Topoisomerase 4 subunit ParE.
The nature of series [5]: Ratio of IC50 for Staphylococcus aureus DNA gyrase B to IC50 for Streptococcus pneumoniae Topoisomerase ParE.

In brackets after ≈: the same amount, converted by molar mass. Where only a bound is given, the exact number is not on record here.

On to `CO[C@@H]1[C@@H](OC(N)=O)[C@@H](O)[C@H](Oc2ccc3c(O)c(NC(=O)c4ccc(O)c(CC=C(C)C)c4)c(=O)oc3c2C)OC1(C)C` [NOVOBIOCIN], for which the results for the MIC in the series on Staphylococcus aureus [1], with Staphylococcus aureus [2] and against Streptococcus pneumoniae were 0.39 µM (≈ 0.239 µg/mL), 0.39 µM (≈ 0.239 µg/mL) and 0.78 µM (≈ 0.478 µg/mL), respectively.
With `CCNC(=O)c1cc2c(-n3ccc(C(F)(F)F)n3)c(-c3cncc(C#N)c3)cnc2[nH]1`, the logD (as a rule, lipophilicity at a set pH, counting ionised and neutral species) in series [3] was 2.62. The MIC (commonly the lowest concentration that inhibits growth of the organism) with Staphylococcus aureus [1] stood at 1.56 µM (≈ 0.664 µg/mL); against Staphylococcus aureus [2] it was 3.13 µM (≈ 1.33 µg/mL); in the series with Streptococcus pneumoniae, 0.2 µM (≈ 0.0851 µg/mL). Besides, the IC50 (as a rule, the concentration that inhibits the measured activity by half) was determined as 23 nM on DNA gyrase subunit B and 10 nM in series [4].
Consider `CCNC(=O)c1cc2c(-n3ccc(C(F)(F)F)n3)c(-c3cnc(OC)c(-c4n[nH]c(=O)o4)c3)cnc2[nH]1`, for which the MIC was 1.56 µM (≈ 0.803 µg/mL) against Staphylococcus aureus [1], 0.78 µM (≈ 0.401 µg/mL) against Staphylococcus aureus [2] and less than 0.03 µM with Streptococcus pneumoniae. The IC50 at DNA gyrase subunit B was 4 nM; in series [4], 3 nM.
In the case of `CCNC(=O)c1cc2c(-n3ccc(C(F)(F)F)n3)c(-c3cncc(C(=O)NC)c3)cnc2[nH]1`, in series [3], the logD came to 2.21. In addition, the MIC was determined as 12.5 µM (≈ 5.72 µg/mL) against Staphylococcus aureus [1], 6.25 µM (≈ 2.86 µg/mL) in the series on Staphylococcus aureus [2] and 0.098 µM (≈ 0.0448 µg/mL) against Streptococcus pneumoniae. Besides, the concentration for half-maximal inhibition (IC50) on DNA gyrase subunit B amounted to 11 nM; in series [4], 16 nM.
Compound `CCNC(=O)c1cc2c(-n3ccc(C(F)(F)F)n3)c(-c3cc(-c4n[nH]c(=O)o4)cnc3OC)cnc2[nH]1` registered a logD in series [3] of 2.91. In addition, the MIC against Staphylococcus aureus [1] was 0.2 µM (≈ 0.103 µg/mL); with Staphylococcus aureus [2], 0.098 µM (≈ 0.0504 µg/mL); against Streptococcus pneumoniae it was less than 0.02 µM. The figures for the IC50 (against DNA gyrase subunit B; in series [4]) were 2 nM and 3 nM, respectively.
`CCNC(=O)c1cc2c(-n3ccc(C(F)(F)F)n3)c(-c3cncc(-c4n[nH]c(=O)o4)c3)cnc2[nH]1` yielded a logD in series [3] of 1.65. Besides, the values for the MIC against Staphylococcus aureus [1], with Staphylococcus aureus [2] and with Streptococcus pneumoniae were 1.1 µM (≈ 0.533 µg/mL), 0.4 µM (≈ 0.194 µg/mL) and less than 0.03 µM, respectively. The IC50 at DNA gyrase subunit B was less than 1 nM; in series [4] it was 3 nM.
In series [3], `CCNC(=O)c1cc2c(-n3nc(C(F)(F)F)cc3C)c(-c3cncc(C(=O)O)c3)cnc2[nH]1` gave a logD of -0.88. The MIC was greater than 25 µM against Staphylococcus aureus [2] and 12.5 µM (≈ 5.73 µg/mL) in the series on Streptococcus pneumoniae. Further, the IC50 at DNA gyrase subunit B came to 133 nM; in series [4] it was 65 nM.
On to `C[C@H]1COc2c(N3CCN(C)CC3)c(F)cc3c(=O)c(C(=O)O)cn1c23` [LEVOFLOXACIN], for which the results for the MIC against Staphylococcus aureus [1], in the series on Staphylococcus aureus [2] and against Streptococcus pneumoniae were greater than 25 µM, 0.78 µM (≈ 0.282 µg/mL) and 3.13 µM (≈ 1.13 µg/mL), respectively.
`CCCNC(=O)c1cc2c(-n3ccc(C(F)(F)F)n3)c(-c3cncc(C(=O)O)c3)cnc2[nH]1`: the logD in series [3] was -0.79. Moreover, the MIC in the series with Staphylococcus aureus [2] and in the series with Streptococcus pneumoniae was greater than 25 µM in each case. In addition, the IC50 was determined as 58 nM at DNA gyrase subunit B and 45 nM in series [4].
In the case of `O=C(O)/C=C/c1cccc(-c2cnc3[nH]ccc3c2)c1`, the logD in series [3] was found to be 0.58. For the same compound, the MIC with Staphylococcus aureus [2] was greater than 200 µM; in the series on Streptococcus pneumoniae, 200 µM (≈ 52.9 µg/mL).
On the same counts, the results for `CCNC(=O)c1cc2c(-n3ccc(C(F)(F)F)n3)c(-c3cncc(C(=O)O)c3)cnc2[nH]1` are -0.99, greater than 25 µM and 6.25 µM (≈ 2.78 µg/mL).
Take `CC(C)NC(=O)c1cc2c(-n3ccc(C(F)(F)F)n3)c(-c3cncc(C(=O)O)c3)cnc2[nH]1`: the logD in series [3] is -0.62. Besides, the MIC against Staphylococcus aureus [2] and in the series with Streptococcus pneumoniae was greater than 25 µM throughout. The IC50 on DNA gyrase subunit B was 147 nM; in series [4], 44 nM.
Turning to `O=C(O)c1cncc(-c2cnc3[nH]c(C(=O)NC4CC4)cc3c2-n2ccc(C(F)(F)F)n2)c1`, the logD in series [3] is -0.98. For the same compound, in series [5], the Ratio IC50 is greater than 3. The MIC was greater than 25 µM against Staphylococcus aureus [2] and 25 µM (≈ 11.4 µg/mL) against Streptococcus pneumoniae. Besides, the IC50 came out at 39 nM against DNA gyrase subunit B and 6 nM in series [4].
Turning to `CCNC(=O)c1cc2c(-n3ccc(C(F)(F)F)n3)c(-c3cncc(C(N)=O)c3)cnc2[nH]1`, the MIC was greater than 25 µM in the series on Staphylococcus aureus [1], 25 µM (≈ 11.1 µg/mL) against Staphylococcus aureus [2] and 0.2 µM (≈ 0.0887 µg/mL) in the series on Streptococcus pneumoniae.

The record behind these values is ChEMBL document CHEMBL2057070, “Discovery of a novel azaindole class of antibacterial agents targeting the ATPase domains of DNA gyrase and Topoisomerase IV” (Bioorg Med Chem Lett, 2012).
